# Laboratory results: PubChem BioAssay (NCI)
#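 Cells were grown in 96-well plates and exposed to each compound for 48 hours at five concentrations; endpoints were interpolated linearly between bracketing concentrations, or set to the highest concentration if not reached. TGI marks complete inhibition of growth.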
# Key:
# Experiment in all cases: growth of human tumour cells (NCI), 48 h
# NCI-H23 lung = test system: NCI-H23 lung
# HCT-116 colon = test system: HCT-116 colon
# LOX IMVI melanoma = test system: LOX IMVI melanoma
# DLD-1 colon = test system: DLD-1 colon
# EKVX NSCLC = test system: EKVX NSCLC
# NCI-H522 lung = test system: NCI-H522 lung
# OVCAR-3 ovarian = test system: OVCAR-3 ovarian
# RPMI-8226 leukemia = test system: RPMI-8226 leukemia
# UACC-62 melanoma = test system: UACC-62 melanoma
# HCC-2998 colon = test system: HCC-2998 colon
# OVCAR-4 ovarian = test system: OVCAR-4 ovarian
# MOLT-4 leukemia = test system: MOLT-4 leukemia
# UO-31 renal = test system: UO-31 renal
# SNB-78 CNS = test system: SNB-78 CNS
# ACHN renal = test system: ACHN renal
# SNB-75 CNS = test system: SNB-75 CNS
# OVCAR-8 ovarian = test system: OVCAR-8 ovarian
# 786-0 renal = test system: 786-0 renal
# RXF 393 renal = test system: RXF 393 renal
# NCI-H226 lung = test system: NCI-H226 lung
# M19-MEL melanoma = test system: M19-MEL melanoma
# M14 melanoma = test system: M14 melanoma
# NCI-H460 lung = test system: NCI-H460 lung
# SK-MEL-2 melanoma = test system: SK-MEL-2 melanoma
# HL-60(TB) leukemia = test system: HL-60(TB) leukemia
# A549 NSCLC = test system: A549 NSCLC
# SF-539 CNS = test system: SF-539 CNS
# KM20L2 colon = test system: KM20L2 colon
# HOP-92 NSCLC = test system: HOP-92 NSCLC
# U251 CNS = test system: U251 CNS
# MALME-3M melanoma = test system: MALME-3M melanoma
# SR leukemia = test system: SR leukemia
# LXFL 529 NSCLC = test system: LXFL 529 NSCLC
# UACC-257 melanoma = test system: UACC-257 melanoma
# SK-MEL-28 melanoma = test system: SK-MEL-28 melanoma
# DMS 114 small cell lung = test system: DMS 114 small cell lung
# SNB-19 CNS = test system: SNB-19 CNS
# KM12 colon = test system: KM12 colon
# HOP-18 NSCLC = test system: HOP-18 NSCLC
# SF-295 CNS = test system: SF-295 CNS
# HCT-15 colon = test system: HCT-15 colon
# DMS 273 small cell lung = test system: DMS 273 small cell lung
# HOP-62 NSCLC = test system: HOP-62 NSCLC
# SK-OV-3 ovarian = test system: SK-OV-3 ovarian
# SN12C renal = test system: SN12C renal
# K-562 leukemia = test system: K-562 leukemia
# COLO 205 colon = test system: COLO 205 colon
# TK-10 renal = test system: TK-10 renal
# SF-268 CNS = test system: SF-268 CNS
# SW-620 colon = test system: SW-620 colon
# CAKI-1 renal = test system: CAKI-1 renal
# CCRF-CEM leukemia = test system: CCRF-CEM leukemia
# XF 498 CNS = test system: XF 498 CNS
# HT29 colon = test system: HT29 colon
# SK-MEL-5 melanoma = test system: SK-MEL-5 melanoma
# IGROV1 ovarian = test system: IGROV1 ovarian
# OVCAR-5 ovarian = test system: OVCAR-5 ovarian
# A498 renal = test system: A498 renal
smiles,measurement,setting,value
CCCN(CCC)C(=O)Cc1c2n(c3ccccc13)CCCc1ccccc1-2,TGI,NCI-H23 lung,25.7 µM
same,TGI,HCT-116 colon,26.3 µM
same,TGI,LOX IMVI melanoma,29.1 µM
same,TGI,DLD-1 colon,26.5 µM
same,TGI,EKVX NSCLC,28.5 µM
same,TGI,NCI-H522 lung,25.3 µM
same,TGI,OVCAR-3 ovarian,29.5 µM
same,TGI,RPMI-8226 leukemia,37.6 µM
same,TGI,UACC-62 melanoma,23 µM
same,TGI,HCC-2998 colon,25.9 µM
same,TGI,OVCAR-4 ovarian,26.2 µM
same,TGI,MOLT-4 leukemia,32.9 µM
same,TGI,UO-31 renal,27.2 µM
same,TGI,SNB-78 CNS,27.6 µM
same,TGI,ACHN renal,25.1 µM
same,TGI,SNB-75 CNS,24.4 µM
same,TGI,OVCAR-8 ovarian,29.9 µM
same,TGI,786-0 renal,30.6 µM
same,TGI,RXF 393 renal,22.4 µM
same,TGI,NCI-H226 lung,28.5 µM
same,TGI,M19-MEL melanoma,29.5 µM
same,TGI,M14 melanoma,26.4 µM
same,TGI,NCI-H460 lung,29.3 µM
same,TGI,SK-MEL-2 melanoma,25.8 µM
same,TGI,HL-60(TB) leukemia,37.1 µM
same,TGI,A549 NSCLC,28.2 µM
same,TGI,SF-539 CNS,28.6 µM
same,TGI,KM20L2 colon,27.9 µM
same,TGI,HOP-92 NSCLC,14.7 µM
same,TGI,U251 CNS,29.4 µM
same,TGI,MALME-3M melanoma,26.8 µM
same,TGI,SR leukemia,24.8 µM
same,TGI,LXFL 529 NSCLC,26.6 µM
same,TGI,UACC-257 melanoma,27 µM
same,TGI,SK-MEL-28 melanoma,29.9 µM
same,TGI,DMS 114 small cell lung,24.1 µM
same,TGI,SNB-19 CNS,27.7 µM
same,TGI,KM12 colon,25.2 µM
same,TGI,HOP-18 NSCLC,30.3 µM
same,TGI,SF-295 CNS,22.4 µM
same,TGI,HCT-15 colon,23.8 µM
same,TGI,DMS 273 small cell lung,23.2 µM
same,TGI,HOP-62 NSCLC,30.3 µM
same,TGI,SK-OV-3 ovarian,29 µM
same,TGI,SN12C renal,29.2 µM
same,TGI,K-562 leukemia,37.4 µM
same,TGI,COLO 205 colon,29.1 µM
same,TGI,TK-10 renal,29.5 µM
same,TGI,SF-268 CNS,28.5 µM
same,TGI,SW-620 colon,30.2 µM
same,TGI,CAKI-1 renal,28.4 µM
same,TGI,CCRF-CEM leukemia,37.2 µM
same,TGI,XF 498 CNS,28.8 µM
same,TGI,HT29 colon,26 µM
same,TGI,SK-MEL-5 melanoma,27.4 µM
C/C(=N\O)C(CN(C)C)C(c1ccccc1)c1c(O)c2ccccc2oc1=O (centres undefined),TGI,NCI-H23 lung,> 100 µM
same,TGI,HCT-116 colon,> 100 µM
same,TGI,LOX IMVI melanoma,> 100 µM
same,TGI,DLD-1 colon,> 100 µM
same,TGI,EKVX NSCLC,> 100 µM
same,TGI,NCI-H522 lung,> 100 µM
same,TGI,RPMI-8226 leukemia,> 100 µM
same,TGI,UACC-62 melanoma,> 100 µM
same,TGI,HCC-2998 colon,> 100 µM
same,TGI,OVCAR-4 ovarian,> 100 µM
same,TGI,MOLT-4 leukemia,> 100 µM
same,TGI,UO-31 renal,> 100 µM
same,TGI,SNB-78 CNS,> 100 µM
same,TGI,SNB-75 CNS,> 100 µM
same,TGI,OVCAR-8 ovarian,> 100 µM
same,TGI,786-0 renal,> 100 µM
same,TGI,IGROV1 ovarian,> 100 µM
same,TGI,RXF 393 renal,> 100 µM
same,TGI,NCI-H226 lung,> 100 µM
same,TGI,M19-MEL melanoma,> 100 µM
same,TGI,M14 melanoma,> 100 µM
same,TGI,SK-MEL-2 melanoma,> 100 µM
same,TGI,HL-60(TB) leukemia,> 100 µM
same,TGI,A549 NSCLC,> 100 µM
same,TGI,SF-539 CNS,> 100 µM
same,TGI,KM20L2 colon,> 100 µM
same,TGI,HOP-92 NSCLC,> 100 µM
same,TGI,U251 CNS,> 100 µM
same,TGI,OVCAR-5 ovarian,> 100 µM
same,TGI,MALME-3M melanoma,> 100 µM
same,TGI,SR leukemia,> 100 µM
same,TGI,LXFL 529 NSCLC,> 100 µM
same,TGI,UACC-257 melanoma,> 100 µM
same,TGI,SK-MEL-28 melanoma,> 100 µM
same,TGI,DMS 114 small cell lung,> 100 µM
same,TGI,SNB-19 CNS,> 100 µM
same,TGI,A498 renal,> 100 µM
same,TGI,KM12 colon,> 100 µM
same,TGI,SF-295 CNS,> 100 µM
same,TGI,HCT-15 colon,> 100 µM
same,TGI,DMS 273 small cell lung,> 100 µM
same,TGI,HOP-62 NSCLC,> 100 µM
same,TGI,SK-OV-3 ovarian,> 100 µM
same,TGI,SN12C renal,> 100 µM
same,TGI,K-562 leukemia,> 100 µM
same,TGI,COLO 205 colon,> 100 µM
same,TGI,TK-10 renal,> 100 µM
same,TGI,SF-268 CNS,> 100 µM
same,TGI,SW-620 colon,> 100 µM
same,TGI,CAKI-1 renal,> 100 µM
same,TGI,CCRF-CEM leukemia,> 100 µM
same,TGI,XF 498 CNS,> 100 µM
same,TGI,HT29 colon,> 100 µM
same,TGI,SK-MEL-5 melanoma,> 100 µM
